Assay results: patent publication US11459341B1, “Organic anion lithium ionic cocrystal compounds and compositions” (UNIVERSITY OF SOUTH FLORIDA, priority 2013, dated 2022)

System: BV2 microglia cells
Assay: NO (nitrite) production by LPS-activated BV2 microglia, Griess Reagent System
Type: cell-based
Conditions: treated 1 hour before 100 ng/ml LPS, nitrite in media 24 hours later
Procedure: BV2 microglia cells were treated with LIC (LiCl), LSC (Lithium saccharinate), LSCBTN and LSCSAR at 12.5 and 25 mM in DMEM for 1 hour prior to activation of microglia by 100 ng/ml LPS. Nitrite (NO^2−), a stable breakdown product of NO, was measured in the media 24 hours later using a Griess Reagent System (Promega).

| Structure (SMILES) | attenuation of NO production by LPS-activated BV2 microglia, comparison between lithium forms (12.5 and 25 mM (both/all concentrations tested)) | inhibition of NO production by LPS-activated BV2 microglia (25 mM) |
| --- | --- | --- |
| O=C1[N-]S(=O)(=O)c2ccccc21.[Li+] [LSC, Lithium saccharinate] | outperformed LIC |  |
| [Cl-].[Li+] [LIC, LiCl] |  | only partially effective |
